Data set [1] in a line: Metabolic stability in rat liver microsomes assessed as residue remaining at 10 uM incubated for 20 and 40 mins. Type of data set: ADME, Microsome. Conditions: read-out: Stability. (In general: Microsomes from liver hold many membrane-bound enzymes, among them those of drug oxidation.)
A short description of data set [2]: Metabolic stability in human liver microsomes assessed as residue remaining at 10 uM incubated for 20 and 40 mins. Conditions: read-out: Stability. Type of data set: ADME, Microsome.
The subject of another data set is Raji. Put plainly: Antiproliferative activity against human Raji cells assessed as reduction in cell viability at 2 uM by MTT assay relative to control. To be noted: for inhibition at 2 µM: Homo sapiens, Raji. The data set is classed as functional. For orientation: Formazan colour is commonly taken as a measure of viable cells.
Data set [3] is described as follows: Metabolic stability in mouse liver microsomes assessed as residue remaining at 10 uM incubated for 20 and 40 mins. The data set is classed as ADME, Microsome. Conditions: read-out: Stability.
For data set [4], the target named is T1, Bromodomain-containing protein 4 (Homo sapiens, UniProt O60885). Put plainly: Inhibition of BRD4 bromodomain2 (unknown origin) using peptide H4 as substrate incubated for 15 mins followed by substrate addition and measured after 1 hr by alphascreen assay. For orientation: Alpha assays give light when donor and acceptor beads are brought close together.
In another data set the test system is HL-60. Put plainly: Antiproliferative activity against human HL60 cells assessed as reduction in cell viability by MTT assay. The data set is classed as functional, cell-based.
Data set [5] addresses T1, Bromodomain-containing protein 4. Kind of data set: Inhibition of BRD4 bromodomain1 (unknown origin) using peptide H4 as substrate incubated for 15 mins followed by substrate addition and measured after 1 hr by alphascreen assay.
In data set [6] the test system is BXPC-3. Put plainly: Antiproliferative activity against human BxPC3 cells assessed as reduction in cell viability at 2 uM by MTT assay relative to control. The data set is classed as functional. Conditions: for inhibition at 2 µM: Homo sapiens, BXPC-3.
Data set [7] concerns BXPC-3. Put plainly: Antitumor activity against human BxPC3 cells xenografted in BALB/c SCID mouse assessed as reduction in tumor growth inhibition at 30 mg/kg, ip bid measured on day 14 relative to control. The data set is classed as functional. Conditions: BXPC-3, ip, 336 h, read-out: TGI.
Data set [8] has as its system BXPC-3. Put plainly: Antitumor activity against human BxPC3 cells xenografted in BALB/c SCID mouse assessed as reduction in tumor growth inhibition at 50 mg/kg, ip measured on day 14 relative to control. To be noted: BXPC-3, ip, 336 h, read-out: TGI. Type of data set: functional.
The subject of data set [9] is Mus musculus. Put plainly: Down regulation of c-Myc in BALB/c SCID mouse xenogrfted with human BxPC3 cells at 50 mg/kg, ip measured on day 14 by immunohistochemical analysis. Type of data set: functional, organism-based.
Data set [10] in a line: Toxicity in BALB/c SCID mouse assessed as reduction in body weight at 5 and 50 mg/kg, ip measured on day 14. To be noted: in vivo. The data set is classed as organism-based.
Data set [11] in a line: Drug localization in nuclei of human BxPC3 cells at 2 uM incubated for 0.5 hrs by Hoechst 33342 staining based microscopic analysis. Type of data set: ADME, cell-based. Conditions: bxpc-3, 0.5 h.
The test system of data set [12] is Mus musculus. Kind of data set: Upregulation of […] in BALB/c SCID mouse xenogrfted with human BxPC3 cells at 50 mg/kg, ip measured on day 14 by immunohistochemical analysis. Type of data set: functional, organism-based.
The subject of data set [13] is BXPC-3. Put plainly: Antitumor activity against human BxPC3 cells xenografted in BALB/c SCID mouse assessed as reduction in tumor growth inhibition at 5 mg/kg, ip measured on day 14 relative to control. The data set is classed as functional. To be noted: BXPC-3, ip, 336 h, read-out: TGI.
The subject of data set [14] is BXPC-3. Kind of data set: Inhibition of colony formation in human BxPC3 cells at 2 uM relative to control. Type of data set: functional.
The subject of data set [15] is BXPC-3. Put plainly: Antitumor activity against human BxPC3 cells xenografted in BALB/c SCID mouse assessed as suppression of cell proliferation at 50 mg/kg, ip measured on day 14 by Ki-67 staining based assay. Type of data set: functional, organism-based.

This note sets out measurements from ChEMBL document CHEMBL4312044, “Pharmacokinetics-Driven Optimization of 7-Methylimidazo[1,5-a]pyrazin-8(7H)-one as Novel BRD4 Inhibitors” (ACS Med Chem Lett, 2019).

The structures appear in SMILES notation. Activity calls are given as the source filed them. The calls are words filed in the database; no cut-off is given here.

Usually inhibition stands for the relative decrease from the control value, in per cent. Broadly, the IC50 is the concentration that inhibits the measured activity by half. For `CCS(=O)(=O)Nc1ccc(Oc2cc(F)ccc2C)c(-c2cn(C)c(=O)c3cncn23)c1`, the remaining at 40 min, 10 µM was determined as 7.6% in [1], 13.2% in data set [2] and 11.2% in data set [3]. In addition, the inhibition at 2 µM in the data set with Raji amounted to 33.8%; with BXPC-3 [6], 2.9%. Further, the IC50 is 34 nM in data set [4], 440 nM in the data set with HL-60 and 22 nM in data set [5].

`CCS(=O)(=O)Nc1ccc(Oc2cc(F)c(F)c(F)c2)c(-c2cn(C)c(=O)c3cncn23)c1`: the remaining at 40 min, 10 µM was 54.3% in data set [1], 55.8% in [2] and 36% in data set [3]. The inhibition at 2 µM came to 46% with Raji and 28.7% in the data set on BXPC-3 [6]. Moreover, the IC50 turned out to be 140 nM in data set [4], 590 nM in the data set with HL-60 and 46 nM in [5].

In the case of `CCS(=O)(=O)Nc1ccc(Oc2cccc(-c3c(C)noc3C)c2)c(-c2cn(C)c(=O)c3cncn23)c1`, the values for the inhibition at 2 µM in the data set on Raji and in the data set with BXPC-3 [6] were 19.7% and 25.1%, respectively. Further, the figures for the half-inhibitory concentration (IC50) (in data set [4]; in the data set with HL-60; in data set [5]) were 81 nM, 530 nM and 92 nM, respectively.

Turning to `Cc1sc2c(c1C)C(c1ccc(Cl)cc1)=N[C@@H](CC(=O)OC(C)(C)C)c1nnc(C)n1-2`, the “inhibition (INH)” value in the data set with Raji amounted to 47.9%; in the data set on BXPC-3 [6], 31.1%. In addition, the concentration for half-maximal inhibition (IC50) in the data set on HL-60 worked out at 870 nM.

Consider `Cn1cc(-c2cc(NS(C)(=O)=O)ccc2Oc2cccc(Br)c2)n2cncc2c1=O`, for which the remaining at 40 min, 10 µM in [1] stood at 34.9%; in data set [2] it was 45.9%; in [3], 67.2%. The inhibition at 2 µM in the data set on Raji is 29.4%; with BXPC-3 [6] it was 36.1%. Moreover, the IC50 in data set [4] turned out to be 61 nM; in the data set on HL-60, 450 nM; in [5], 57 nM.

On to `CCS(=O)(=O)Nc1ccc(Oc2ccc(C(C)C)cc2)c(-c2cn(C)c(=O)c3cncn23)c1`, for which the results for the remaining at 40 min, 10 µM in data set [1], in data set [2] and in [3] were 3.9%, 13.1% and 17.2%, respectively. Moreover, the inhibition at 2 µM came out at 50.4% in the data set on Raji and 35.4% with BXPC-3 [6]. Moreover, the IC50 is 36 nM in data set [4], 110 nM in the data set on HL-60 and 49 nM in [5].

Turning to `Cc1noc(C)c1-c1cccc(Oc2ccc(NS(C)(=O)=O)cc2-c2cn(C)c(=O)c3cncn23)c1`, the inhibition at 2 µM stood at 28.9% in the data set with Raji and 31.7% with BXPC-3 [6]. The results for the IC50 (in [4]; in the data set on HL-60; in data set [5]) were 179 nM, 1230 nM and 162 nM, respectively.

On to `O=c1[nH]cc(F)c(=O)[nH]1` [FLUOROURACIL], for which, in the data set with BXPC-3 [7], the inhibition in vivo at 30 mg/kg turned out to be 67%.

As for `CCS(=O)(=O)Nc1ccc(Oc2ccc(-c3c(C)noc3C)cc2)c(-c2cn(C)c(=O)c3cncn23)c1`, the remaining at 40 min, 10 µM in data set [1] turned out to be 59.1%; in [2], 54.3%; in data set [3], 48.2%. In addition, the figures for the inhibition at 2 µM in the data set on Raji and in the data set on BXPC-3 [6] were 22.9% and 23.2%, respectively. For the same compound, the IC50 in [4] amounted to 50 nM; in the data set on HL-60 it was 510 nM; in data set [5], 64 nM.

Regarding `Cc1noc(C)c1-c1ccc(Oc2ccc(NS(C)(=O)=O)cc2-c2cn(C)c(=O)c3cncn23)cc1`, the inhibition at 2 µM in the data set with Raji was 23.7%; in the data set with BXPC-3 [6], 26.4%. Further, the values for the IC50 (in data set [4]; in the data set with HL-60; in data set [5]) were 153 nM, 1120 nM and 141 nM, respectively.

Regarding `CCS(=O)(=O)Nc1ccc(Oc2ccc(F)cc2F)c(-c2cn(C)c(=O)c3[nH]ccc23)c1` [MIVEBRESIB], the results for the remaining at 40 min, 10 µM in [1], in [2] and in data set [3] were 69%, 60.8% and 60.9%, respectively. Further, the inhibition at 2 µM was 51.2% in the data set on Raji and 42.7% in the data set with BXPC-3 [6]. The IC50 in data set [4] turned out to be 47 nM; with HL-60, 120 nM; in [5], 39 nM.

Regarding `Cn1cc(-c2cc(NS(C)(=O)=O)ccc2Oc2ccc(Br)cc2)n2cncc2c1=O`, the values for the remaining at 40 min, 10 µM in data set [1], in data set [2] and in data set [3] were 54.2%, 66.7% and 61.2%, respectively. Besides, the inhibition at 2 µM in the data set on Raji was 33.1%; in the data set on BXPC-3 [6], 34.8%. For the same compound, the IC50 in [4] came to 44 nM; in the data set on HL-60, 230 nM; in data set [5] it was 37 nM.

Take `CCS(=O)(=O)Nc1ccc(Oc2cc(C)ccc2F)c(-c2cn(C)c(=O)c3cncn23)c1`: the remaining at 40 min, 10 µM in data set [1] stood at 5.7%; in data set [2] it was 14.1%; in data set [3], 4.6%. Moreover, the results for the inhibition at 2 µM with Raji and in the data set with BXPC-3 [6] were 49.9% and 28.8%, respectively. The IC50 in data set [4] stood at 21 nM; in the data set on HL-60 it was 270 nM; in [5] it was 46 nM.

As for `CCS(=O)(=O)Nc1ccc(Oc2ccc(F)cc2)c(-c2cn(C)c(=O)c3cncn23)c1`, the remaining at 40 min, 10 µM in [1] was 76.2%; in data set [2], 95.2%; in data set [3] it was 65.6%. Also, the inhibition at 2 µM in the data set on Raji was 39.5%; with BXPC-3 [6], 38.4%; in the data set with BXPC-3 [14], more than 50%. In addition, the inhibition in vivo at 50 mg/kg in the data set with BXPC-3 [8] was 65%. The outcome in the data set on Mus musculus [9], with Mus musculus [12] and in the data set with BXPC-3 [15] was Active. In [10], the Activity entry is recorded as “Non-Toxic”. In [11], the Drug uptake entry is reported as “Active”. Further, the IC50 in data set [4] turned out to be 29 nM; in the data set on HL-60, 45 nM; in data set [5], 30 nM. For the same compound, in the data set on BXPC-3 [13], the inhibition in vivo at 5 mg/kg was 22%.

As to `Cn1cc(-c2cc(NS(C)(=O)=O)ccc2Oc2ccc(F)cc2)n2cncc2c1=O`, the remaining at 40 min, 10 µM is 78% in [1], 100% in data set [2] and 75.9% in data set [3]. For the same compound, the inhibition at 2 µM was determined as 24.2% in the data set with Raji and 25.3% with BXPC-3 [6]. Besides, the figures for the half-maximal inhibitory concentration (IC50) (in the data set with HL-60; in data set [5]) were 370 nM and 44 nM, respectively.

As for `CCS(=O)(=O)Nc1ccc(Oc2ccc(F)cc2F)c(-c2cn(C)c(=O)c3cncn23)c1`, the remaining at 40 min, 10 µM in data set [1] amounted to 17.6%; in data set [2], 21.2%; in data set [3] it was 13.2%. The inhibition at 2 µM turned out to be 46.2% with Raji and 33.2% in the data set with BXPC-3 [6]. Also, the IC50 in data set [4] worked out at 25 nM; in the data set with HL-60 it was 110 nM; in data set [5], 33 nM.
